Measurements from US20100144763A1, “Pharmaceutical composition for inhibiting topoisomerase I and method for exploiting drug” (priority 2008, published 2010).

Columns and labels:
[1] = molecular target: T1, DNA TopoI from the vaccinia virus (Vaccinia virus, UniProt P68698); assay type: biochemical
T1 construct: purchased EPICENTRE Biotechnologies, Madison, Wis

[2] = tested on: human breast MCF-7 carcinoma cells; experiment: MTT assay, cell growth inhibition / cytotoxicity; assay type: cell-based; conditions: MCF7, 24 h, read-out: IC50, cytotoxicity
Experimental: Example 1 relates to cell growth inhibition of EVO according to the present invention. Breast cancer MCF-7 cells are cultured in Dulbecco's modified Eagle medium (DMEM) supplemented with 10% heat-inactivated fetal bovine serum (FBS), and 100 μg/ml penicillin-streptomycin. Conditions were maintained in a humidified 95% air/5% CO2 incubator at 37° C. The MTT [3-(4,5-dimethylthiazol-2-yl)-2,5-diphenyl tetrazolium bromide] assay was described previously to test the cytotoxicity of reagents and cell viability (Lin, Tsai, Chen, Chang, Lee et al., 2008). Cells (5000 cells/well) are grown on a 96-well plate supplemented with DMEM medium (with 1% FBS) for 24 hours. Then, cells are treated with CPT or EVO ([…]), and the viability is determined by the reduction of MTT. An MTT stock solution (5 mg of MTT/ml of PBS) is added to the growing cultures (at a final concentration of 0.5 mg/ml). The OD is measured with a spectrophotometer at 560 nm. A blank with DMSO alone is measured and subtracted from all values.
The cytotoxic abilities of EVO and CPT are tested against human breast MCF-7 carcinoma cells, which express high levels of TopoI. CPT is used as a reference drug. Both compounds display efficient cytotoxicity after 24 h of drug exposure. […] Consequently, EVO is slightly less cytotoxic than CPT against breast MCF-7 carcinoma cells.

[3] = molecular target: T2, purified recombinant eukaryotic TopoI (Homo sapiens, UniProt P11387); assay type: biochemical; conditions: supercoiled DNA relaxation, TopoI prepared from recombinant DNA
T2 sequence (P11387 1-765): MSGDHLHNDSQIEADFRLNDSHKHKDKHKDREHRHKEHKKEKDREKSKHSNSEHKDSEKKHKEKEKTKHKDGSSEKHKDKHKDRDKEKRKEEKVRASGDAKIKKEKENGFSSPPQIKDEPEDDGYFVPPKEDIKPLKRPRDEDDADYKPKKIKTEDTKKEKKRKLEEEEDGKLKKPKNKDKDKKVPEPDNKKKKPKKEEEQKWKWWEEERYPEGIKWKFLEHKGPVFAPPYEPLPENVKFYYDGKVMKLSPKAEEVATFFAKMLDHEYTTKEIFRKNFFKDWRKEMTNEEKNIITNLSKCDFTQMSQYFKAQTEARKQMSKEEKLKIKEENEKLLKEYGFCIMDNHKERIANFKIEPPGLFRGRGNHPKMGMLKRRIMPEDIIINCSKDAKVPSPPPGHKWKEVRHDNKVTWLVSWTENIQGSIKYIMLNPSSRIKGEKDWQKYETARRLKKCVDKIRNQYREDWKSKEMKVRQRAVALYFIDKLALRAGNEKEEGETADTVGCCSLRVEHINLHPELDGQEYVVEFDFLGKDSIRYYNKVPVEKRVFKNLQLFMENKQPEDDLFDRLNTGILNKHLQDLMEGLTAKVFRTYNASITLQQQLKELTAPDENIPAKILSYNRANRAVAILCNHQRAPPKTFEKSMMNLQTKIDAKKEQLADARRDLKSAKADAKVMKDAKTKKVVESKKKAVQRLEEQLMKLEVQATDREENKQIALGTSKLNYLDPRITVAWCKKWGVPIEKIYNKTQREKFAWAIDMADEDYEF

[4] = molecular target: T3, free-form TopoI in MCF-7 cells (Homo sapiens, UniProt P11387); experiment: depletion assay for free-form TopoI (immunoblotting); assay type: cell-based
T3 construct: endogenous in cells; host or cells: MCF-7
T3 sequence (P11387 1-765): T2 sequence (P11387 1-765)
Experimental: Example 3 relates to detection of the levels of free-form TopoI from breast cancer cells reduced by EVO according to the present invention. Provided that EVO is able to fix TopoI on DNA, the level of free-form TopoI should be decreased. Monolayers that are breast cancer MCF-7 cells of 50%—80% confluent are treated with drugs for a short time, and then cellular proteins are extracted from the MCF-7 cells. After that, the cellular proteins are separated electrophoretically in a 7.5% SDS polyacrylamide gel and electro-transferred to a polyvinylidene difluoride (PVDF) membrane. The membrane is incubated with the primary antibody (rabbit anti-human topoisomerase I antisera) at room temperature for 2 hours, and then incubated with a horseradish peroxidase-conjugated secondary immunoglobulin G (IgG) antibody. The immunoreactive bands are visualized with enhanced chemiluminescent reagents and photographed using a gel documentation system.
A depletion assay for free-form TopoI is performed to confirm the effect of EVO on DNA topological catalysis of TopoI. This assay is based on the ability of CPT to trap TopoI and DNA to form a CPT-TopoI-DNA triple complex, to see if EVO inhibits TopoI activity through a similar mechanism. […] Depletion of TopoI protein by EVO is also detected in a concentration-dependent manner after 1 hour of treatment. […]

[5] = molecular target: T4, TopoI-DNA complex in 3H-thymidine-labeled MCF-7 cells (Homo sapiens, UniProt P11387); experiment: KCl/SDS precipitation assay, TopoI-DNA complex trapping; assay type: cell-based; conditions: 30 μM, 60 minutes, FIG. 4
T4 construct: endogenous in cells; host or cells: MCF-7
T4 sequence (P11387 1-765): T2 sequence (P11387 1-765)
Experimental: Example 4 relates to using a KCl/SDS precipitation assay to show TopoI-DNA complex trapping activity of EVO according to the present invention. The formation of a cleavable complex in intact cells is quantified by a KCl-sodium dodecylsulfate (SDS) precipitation technique, a modified procedure described previously by Yoshinari et al. (1993). Cellular DNA is labeled by adding ^3H-thymidine to the medium to a final concentration of 10 μCi/ml. After an overnight incubation, cells are plated to a density of 1×10^5 cells/well in a 24-well plate for another overnight incubation, and treated with various concentrations of EVO (0˜30 μM) for 60 minutes. The medium is removed from each well, and cells are washed with phosphate-buffered saline (PBS) and lysed with 1 ml of prewarmed (65° C.) lysis solution (1.25% SDS, 5 mM EDTA, 0.4 mg/ml salmon sperm DNA). Lysate is sheared using a 21-gauge needle. The samples as background control are treated by the above procedure but with proteinase K (400 μg/ml) in the lysis buffer, and are incubated at 50° C. for 2 hour. KCl (325 mM), at 250 μl, is added to each sample, vortexed vigorously, cooled on ice for 10 minutes, and centrifuged at 2500 rpm for 10 minutes at 4° C. […] The pellet is resuspended in 400 μl prewarmed H2O (65° C.) and combined with 4 ml scintillation liquid, and the radioactivity counts are determined using a liquid scintillation counter. […]

SMILES | inhibitory activity on TopoI catalytic supercoiled plasmid relaxation, compared with CPT and EVO [1] | IC50 [2] [µM] | inhibition of supercoiled plasmid DNA relaxation catalyzed by TopoI [1] | inhibition activity toward purified recombinant eukaryotic TopoI [3] | relative level of DNA-unlinked TopoI protein versus the control ([4]; 0˜10 μM, 1 hour of treatment, FIG. 3B) [%] | TopoI protein level in comparison to the untreated control ([4]; 10 μM, 120-minute treatment, FIG. 3A) [%] | 3H-thymidine-labeled DNA trapped in a covalent complex with TopoI [5] [%]
O=c1c2ccccc2nc2n1CCc1c-2[nH]c2ccccc12 [rutaecarpine] | substantially equivalent to those of CPT and EVO | – | – | – | – | – | –
CC[C@@]1(O)C(=O)OCc2c1cc1n(c2=O)Cc2cc3ccccc3nc2-1 [CPT, Camptothecin, reference compound] | – | 3.23 | retain a greater amount of uncatalytic supercoiled DNA in a dose-dependent manner | – | – | – | –
CN1c2ccccc2C(=O)N2CCc3c([nH]c4ccccc34)C21 (stereo not drawn) [EVO, Evodiamine] | – | 6.02 | inhibitory activity on TopoI catalytic relaxation in a dose-dependent manner | inhibited | < 40 | < 20 | 43.6
